In US20230303549A1, “SUBSTITUTED HETEROARYLOXYPYRIDINES, THE SALTS THEREOF AND THEIR USE AS HERBICIDAL AGENTS” (Bayer Aktiengesellschaft, priority 2020, published 2023):

Key:
Type in all cases: in vivo
[1] = system: Abutilon theophrasti (ABUTH); experiment: Post-emergence herbicidal efficacy at 320 g/ha, greenhouse pot test; conditions: visual rating vs untreated control after about 3 weeks
Procedure: (§1) Seeds of mono- and dicotyledonous weed plants were placed in plastic pots in sandy loam soil (doubly sown with in each case one species of mono- or dicotyledonous weed plants per pot), covered with soil and cultivated in a greenhouse under controlled growth conditions. 2 to 3 weeks after sowing, the test plants were treated at the one-leaf stage. The compounds of the invention, formulated in the form of wettable powders (WP) or as emulsion concentrates (EC), were applied onto the green parts of the plants as aqueous suspension or emulsion with addition of 0.5% additive at a water application rate of 600 liters per hectare (converted). After the test plants had been kept in the greenhouse under optimum growth conditions for about 3 weeks, the activity of the preparations was rated visually in comparison to untreated controls. For example, 100% activity=the plants have died, 0% activity=like control plants. Tables […] 11 below show the effects of selected compounds of the general formula (I) according to Table 1 on various harmful plants and an application rate corresponding to 320 g/ha, which were obtained by the experimental procedure mentioned above.

[2] = system: Alopecurus myosuroides (ALOMY); experiment: as above; conditions: visual rating vs untreated control after about 3 weeks
Procedure: as §1

[3] = system: Amaranthus retroflexus (AMARE); experiment: as above; conditions: visual rating vs untreated control after about 3 weeks
Procedure: as §1

[4] = system: Bassia scoparia (KCHSC); experiment: as above; conditions: visual rating vs untreated control after about 3 weeks
Procedure: as §1

[5] = system: Poa annua (POAAN); experiment: as above; conditions: visual rating vs untreated control after about 3 weeks
Procedure: as §1

[6] = system: Stellaria media (STEME); experiment: as above; conditions: visual rating vs untreated control after about 3 weeks
Procedure: as §1

[7] = system: Veronica persica (VERPE); experiment: as above; conditions: 320 g/ha, visual rating vs untreated control after about 3 weeks
Procedure: as §1

[8] = system: Amaranthus retroflexus (AMARE); experiment: Post-emergence herbicidal efficacy at 80 g/ha, greenhouse pot test; conditions: visual rating vs untreated control after about 3 weeks
Procedure: (§2) Seeds of monocotyledonous and dicotyledonous weeds and crop plants were placed in sandy loam in plastic or organic planting pots, covered with soil and cultivated in a greenhouse under controlled growth conditions. 2 to 3 weeks after sowing, the test plants were treated at the one-leaf stage. The compounds of the invention, formulated in the form of wettable powders (WP) or as emulsion concentrates (EC), were then sprayed onto the green parts of the plants as aqueous suspension or emulsion with addition of 0.5% additive at a water application rate of 600 l/ha (converted). After the test plants had been kept in the greenhouse under optimum growth conditions for about 3 weeks, the activity of the preparations was rated visually in comparison to untreated controls. For example, 100% activity=the plants have died, 0% activity=like control plants. Tables B1 to B6 below show the effects of selected compounds of the general formula (I) according to Table 1 on various harmful plants and an application rate corresponding to 80 g/ha, which were obtained by the experimental procedure mentioned above.

[9] = system: Viola tricolor (VIOTR); experiment: as above; conditions: visual rating vs untreated control after about 3 weeks
Procedure: as §2

[10] = system: Abutilon theophrasti (ABUTH); experiment: Pre-emergence herbicide efficacy at 320 g/ha, greenhouse pot test; conditions: visual scoring vs untreated control after about 3 weeks
Description: (§3) Seeds of mono- and dicotyledonous weed plants were placed in plastic pots in sandy loam soil (doubly sown with in each case one species of mono- or dicotyledonous weed plants per pot) and covered with soil. The compounds of the invention, formulated in the form of wettable powders (WP) or as emulsion concentrates (EC), were then applied onto the surface of the covering soil as aqueous suspension or emulsion with addition of 0.5% additive at a water application rate of 600 liters per hectare (converted). After the treatment, the pots were placed in a greenhouse and kept under good growth conditions for the test plants. After about 3 weeks, the effect of the preparations was scored visually in comparison with untreated controls as percentages. For example, 100% activity=the plants have died, 0% activity=like control plants. Tables C1 to C12 below show the effects of selected compounds of the general formula (I) according to Table 1 on various harmful plants and an application rate corresponding to 320 g/ha, which were obtained by the experimental procedure mentioned above.

[11] = system: Alopecurus myosuroides (ALOMY); experiment: as above; conditions: visual scoring vs untreated control after about 3 weeks
Description: as §3

[12] = system: Amaranthus retroflexus (AMARE); experiment: as above; conditions: visual scoring vs untreated control after about 3 weeks
Description: as §3

[13] = system: Bassia scoparia (KCHSC); experiment: as above
Description: as §3

[14] = system: Echinochloa crus-galli (ECHCG); experiment: as above; conditions: visual scoring vs untreated control after about 3 weeks
Description: as §3

[15] = system: Lolium rigidum (LOLRI); experiment: as above; conditions: visual scoring vs untreated control after about 3 weeks
Description: as §3

[16] = system: Matricaria inodora (MATIN); experiment: as above; conditions: visual scoring vs untreated control after about 3 weeks
Description: as §3

[17] = system: Poa annua (POAAN); experiment: as above; conditions: visual scoring vs untreated control after about 3 weeks
Description: as §3

[18] = system: Setaria viridis (SETVI); experiment: as above; conditions: visual scoring vs untreated control after about 3 weeks
Description: as §3

[19] = system: Stellaria media (STEME); experiment: as above; conditions: visual scoring vs untreated control after about 3 weeks
Description: as §3

[20] = system: Veronica persica (VERPE); experiment: as above; conditions: visual scoring vs untreated control after about 3 weeks
Description: as §3

[21] = system: Abutilon theophrasti (ABUTH); experiment: Pre-emergence herbicide efficacy at 80 g/ha, greenhouse pot test; conditions: visual scoring vs untreated control after about 3 weeks
Description: (§4) Seeds of monocotyledonous and dicotyledonous weed plants and crop plants were placed in plastic or organic planting pots and covered with soil. The compounds of the invention, formulated in the form of wettable powders (WP) or as emulsion concentrates (EC), were then applied to the surface of the covering soil as aqueous suspension or emulsion with addition of 0.5% additive at a water application rate of […] (converted). After the treatment, the pots were placed in a greenhouse and kept under good growth conditions for the test plants. After about 3 weeks, the effect of the preparations was scored visually in comparison with untreated controls as percentages. For example, 100% activity=the plants have died, 0% activity=like control plants. Tables D1 to D12 below show the effects of selected compounds of the general formula (I) according to Table 1 on various harmful plants and an application rate corresponding to 80 g/ha, which were obtained by the experimental procedure mentioned above.

[22] = system: Alopecurus myosuroides (ALOMY); experiment: as above; conditions: visual scoring vs untreated control after about 3 weeks
Description: as §4

[23] = system: Amaranthus retroflexus (AMARE); experiment: as above; conditions: visual scoring vs untreated control after about 3 weeks
Description: as §4

[24] = system: Matricaria inodora (MATIN); experiment: as above; conditions: visual scoring vs untreated control after about 3 weeks
Description: as §4

[25] = system: Polygonum convolvulus (POLCO); experiment: as above; conditions: visual scoring vs untreated control after about 3 weeks
Description: as §4

[26] = system: Setaria viridis (SETVI); experiment: as above; conditions: visual scoring vs untreated control after about 3 weeks
Description: as §4

[27] = system: Veronica persica (VERPE); experiment: as above; conditions: visual scoring vs untreated control after about 3 weeks
Description: as §4

[28] = system: Viola tricolor (VIOTR); experiment: as above; conditions: visual scoring vs untreated control after about 3 weeks
Description: as §4

[29] = system: Polygonum convolvulus (POLCO); experiment: Post-emergence herbicidal efficacy at 80 g/ha, greenhouse pot test; conditions: visual rating vs untreated control after about 3 weeks
Procedure: as §2

[30] = system: Veronica persica (VERPE); experiment: as above; conditions: visual rating vs untreated control after about 3 weeks
Procedure: as §2

[31] = system: Digitaria sanguinalis (DIGSA); experiment: Pre-emergence herbicide efficacy at 320 g/ha, greenhouse pot test; conditions: visual scoring vs untreated control after about 3 weeks
Description: as §3

[32] = 320 g/ha, visual scoring vs untreated control after about 3 weeks

Compound	Post-emergence efficacy against Abutilon theophrasti (ABUTH) [1]	Post-emergence efficacy against Amaranthus retroflexus (AMARE) [3]	Post-emergence efficacy against Bassia scoparia (KCHSC) [4]	Post-emergence action against Stellaria media (STEME) [6]	Post-emergence efficacy against Veronica persica (VERPE) [7]	Post-emergence efficacy against Amaranthus retroflexus (AMARE) [8]	Post-emergence efficacy against Viola tricolor (VIOTR) [9]	Pre-emergence efficacy against Abutilon theophrasti (ABUTH) [10]	Pre-emergence efficacy against Amaranthus retroflexus (AMARE) [12]	Pre-emergence efficacy against Matricaria inodora (MATIN) [16]	Pre-emergence efficacy against Setaria viridis (SETVI) [18]	Pre-emergence efficacy against Stellaria media (STEME) [19]	Pre-emergence efficacy against Veronica persica (VERPE) [20]	Pre-emergence efficacy against Abutilon theophrasti (ABUTH) [21]	Pre-emergence efficacy against Alopecurus myosuroides (ALOMY) [22]	Pre-emergence efficacy against Amaranthus retroflexus (AMARE) [23]	Pre-emergence efficacy against Polygonum convolvulus (POLCO) [25]	Pre-emergence efficacy against Setaria viridis (SETVI) [26]	Pre-emergence efficacy against Veronica persica (VERPE) [27]	Pre-emergence efficacy against Viola tricolor (VIOTR) [28]	other results
Cc1cc(C)c(-c2cc(C(F)F)no2)c(Oc2ncc(Cl)cn2)n1 [Example I-1]	90%	100%	90%	100%	100%	100%	90%	100%	100%	100%	100%	100%	100%	80%	90%	100%	90%	80%	90%	90%	Post-emergence efficacy against Alopecurus myosuroides (ALOMY) [2]: 90%; Post-emergence efficacy against Poa annua (POAAN) [5]: 90%; Pre-emergence efficacy against Alopecurus myosuroides (ALOMY) [11]: 100%; Pre-emergence efficacy against Bassia scoparia (KCHSC) [13, 32]: 90%; Pre-emergence efficacy against Echinochloa crus-galli (ECHCG) [14]: 100%; Pre-emergence efficacy against Lolium rigidum (LOLRI) [15]: 90%; Pre-emergence efficacy against Poa annua (POAAN) [17]: 100%; Pre-emergence efficacy against Matricaria inodora (MATIN) [24]: 100%
Cc1cc(C)c(-c2cc(C(F)F)no2)c(Oc2ccc(F)cn2)n1 [Example I-293]	–	–	–	–	–	100%	–	–	–	–	–	–	–	90%	90%	100%	80%	100%	80%	90%	Post-emergence efficacy against Polygonum convolvulus (POLCO) [29]: 100%; Pre-emergence efficacy against Matricaria inodora (MATIN) [24]: 100%
Cc1cc(C)c(-c2cc(C(F)F)no2)c(Oc2ccc(C#N)cn2)n1 [Example I-292]	90%	100%	90%	100%	100%	90%	90%	90%	100%	100%	90%	100%	90%	–	80%	100%	–	–	90%	90%	Post-emergence efficacy against Poa annua (POAAN) [5]: 100%; Post-emergence efficacy against Veronica persica (VERPE) [30]: 90%; Pre-emergence efficacy against Bassia scoparia (KCHSC) ([13]; dosage 1280 g/ha in Table C6, visual scoring after about 3 weeks): 100%
Cc1cc(C)c(-c2cc(C(F)(F)Cl)no2)c(Oc2ncc(Cl)cn2)n1 [Example I-8]	90%	100%	90%	90%	100%	100%	90%	100%	100%	100%	90%	100%	100%	100%	90%	100%	90%	100%	80%	90%	Post-emergence efficacy against Alopecurus myosuroides (ALOMY) [2]: 100%; Pre-emergence efficacy against Alopecurus myosuroides (ALOMY) [11]: 100%; Pre-emergence efficacy against Bassia scoparia (KCHSC) [13, 32]: 100%; Pre-emergence efficacy against Digitaria sanguinalis (DIGSA) [31]: 100%; Pre-emergence efficacy against Poa annua (POAAN) [17]: 100%
